Reference: patent US11945806B2, “Stabilization of amyloidogenic immunoglobulin light chains” (The Scripps Research Institute, priority 2019, dated 2024)

Target: WIL-FL (Homo sapiens, UniProt P01721)
Assay: Unlabeled LC Protease Sensitivity Assay (proteinase K)
Assay type: biochemical
Conditions: small molecule 10 μM, WIL-FL 5 μM, proteinase K 50 nM, 2 hours at 37° C.
Description: Unlabeled LC Protease Sensitivity Assay. WIL-FL (5 μM) in phosphate-buffered saline (PBS, pH 7.4)+0.02% Pluronic F-127 was incubated with proteinase K (50 nM) with small molecule (10 μM) in 1% DMSO vehicle, or vehicle alone. After 2 hours at 37° C., reactions were quenched with 2 mM phenylmethyl sulfonyl fluoride in methanol and centrifuged at 14,000 rpm for 2 minutes. Remaining WIL-FL was quantified by injecting 10 μL of the supernatant into a Waters Acquity H-Class Bio-UPLC (ultra performance liquid chromatography) instrument equipped with a BEH200 analytical size-exclusion column (1.7 μm, 4.6×150 mm) under isocratic conditions (0.2 mL/min, PBS+1 mM EDTA, 2400 psi backpressure, 15 min), monitoring absorbance at 280 nm. Activity of each compound is given as fold protection from protease=(A_compound−A_vehicle)/(A_no_protease−A_vehicle), where each “A” corresponds to peak integration of the respective treatment.

| SMILES | Protection (fold protection of LC from protease) |
| --- | --- |
| Cc1cc(=O)oc2cc(NCc3ccoc3)ccc12 [Compound 29, 7-((furan-3-ylmethyl)amino)-4-methyl-2H-chromen-2-one] | A (A < 0.3)) |
| CCN(CC)c1ccc2c(C)c(CCOC(=O)NCCNc3ccccn3)c(=O)oc2c1 [Compound 132, 2-(7-(diethylamino)-4-methyl-2-oxo-2H-chromen-3-yl)ethyl (2-(pyridin-2-ylamino)ethyl)carbamate] | C (C ≥ 0.6) |
| CCOC(=O)N1CCC(NC(=O)OCCc2c(C)c3ccc(N(CC)CC)cc3oc2=O)CC1 [Compound 105, Ethyl 4-(((2-(7-(diethylamino)-4-methyl-2-oxo-2H-chromen-3-yl)ethoxy)carbonyl)amino)piperidine-1-carboxylate] | B (3 ≤ B < 0.6) |
| CCN(CC)c1ccc2c(C)c(CCOC(=O)NCc3ccc(C(=O)O)cc3)c(=O)oc2c1 [Compound 119, 4-((((2-(7-(diethylamino)-4-methyl-2-oxo-2H-chromen-3-yl)ethoxy)carbonyl)amino)methyl)benzoic acid] | B (3 ≤ B < 0.6) |
| CCN(CC)c1ccc2c(C)c(CCOC(=O)NCc3ccc(F)c(C(N)=O)c3)c(=O)oc2c1 [Compound 144, 2-(7-(diethylamino)-4-methyl-2-oxo-2H-chromen-3-yl)ethyl (3-carbamoyl-4-fluorobenzyl)carbamate] | C (C ≥ 0.6) |
| CCN(CC)c1ccc2c(C)c(CCOC(=O)NCc3cccc(-c4ncccn4)c3)c(=O)oc2c1 [Compound 155, 2-(7-(diethylamino)-4-methyl-2-oxo-2H-chromen-3-yl)ethyl (3-(pyrimidin-2-yl)benzyl)carbamate] | C (C ≥ 0.6) |
| CCCN(C)c1ccc2c(C)cc(=O)oc2c1 [Compound 253, 4-methyl-7-(methyl(propyl)amino)-2H-chromen-2-one] | A (A < 0.3)) |
| Cc1cc(=O)oc2cc(C(=O)Nc3ccc4ccccc4c3)ccc12 [Compound 227, 4-methyl-N-(naphthalen-2-yl)-2-oxo-2H-chromene-7-carboxamide] | A (A < 0.3)) |
| CCN(CC)c1ccc2c(C)c(CCNC(=O)CCc3ccncc3)c(=O)oc2c1 [Compound 96, N-(2-(7-(diethylamino)-4-methyl-2-oxo-2H-chromen-3-yl)ethyl)-3-(pyridin-4-yl)propanamide] | A (A < 0.3)) |
| CCN(CC)c1ccc2c(C)c(CCOC(=O)NCc3cccc(C(=N)NO)c3)c(=O)oc2c1 [Compound 170, 2-(7-(diethylamino)-4-methyl-2-oxo-2H-chromen-3-yl)ethyl (3-(N-hydroxycarbamimidoyl)benzyl)carbamate] | C (C ≥ 0.6) |
| CCN(CC)c1ccc2c(C)c(CCNC(=O)NCc3cncc4ccccc34)c(=O)oc2c1 [Compound 289, 1-(2-(7-(diethylamino)-4-methyl-2-oxo-2H-chromen-3-yl)ethyl)-3-(isoquinolin-4-ylmethyl)urea] | C (C ≥ 0.6) |
| CCN(CC)c1ccc2c(C)c(CCOC(=O)NCc3ccn[nH]3)c(=O)oc2c1 [Compound 92, 2-(7-(diethylamino)-4-methyl-2-oxo-2H-chromen-3-yl)ethyl ((1H-pyrazol-5-yl)methyl)carbamate] | B (3 ≤ B < 0.6) |
| CCN(CC)c1ccc2c(C)c(CCNC(=O)NCCc3cccnc3)c(=O)oc2c1 [Compound 99, 1-(2-(7-(diethylamino)-4-methyl-2-oxo-2H-chromen-3-yl)ethyl)-3-(2-(pyridin-3-yl)ethyl)urea] | B (3 ≤ B < 0.6) |
| CCN(CC)c1ccc2c(C)c(CCOC(=O)NCc3ccncn3)c(=O)oc2c1 [Compound 90, 2-(7-(diethylamino)-4-methyl-2-oxo-2H-chromen-3-yl)ethyl (pyrimidin-4-ylmethyl)carbamate] | A (A < 0.3)) |
| CCN(CC)c1ccc2c(C)c(CCOC(=O)NCc3cccc(-c4cn[nH]c4)c3)c(=O)oc2c1 [Compound 164, 2-(7-(diethylamino)-4-methyl-2-oxo-2H-chromen-3-yl)ethyl (3-(1H-pyrazol-4-yl)benzyl)carbamate] | C (C ≥ 0.6) |
| CCN(CC)c1ccc2c(C)c(CCOC(=O)NCCc3cnc[nH]3)c(=O)oc2c1 [Compound 88, 2-(7-(diethylamino)-4-methyl-2-oxo-2H-chromen-3-yl)ethyl (2-(1H-imidazol-4-yl)ethyl)carbamate] | B (3 ≤ B < 0.6) |
| CCN(CC)c1ccc2c(C)c(CC(=O)NC)c(=O)oc2c1 [Compound 60, 2-(7-(diethylamino)-4-methyl-2-oxo-2H-chromen-3-yl)-N-methylacetamide] | A (A < 0.3)) |

| SMILES | Protection (fold protection of LC from protease) |
| --- | --- |
| CCN(CC)c1ccc2c(C)c(CCNC(=O)NCc3nccc4ccccc34)c(=O)oc2c1 [Compound 290, 1-(2-(7-(diethylamino)-4-methyl-2-oxo-2H-chromen-3-yl)ethyl)-3-(isoquinolin-1-ylmethyl)urea] | C (C ≥ 0.6) |
| Cc1cc(=O)oc2cc(C(=O)NCc3ccncc3)ccc12 [Compound 228, 4-methyl-2-oxo-N-(pyridin-4-ylmethyl)-2H-chromene-7-carboxamide] | A (A < 0.3)) |
| CCN(CC)c1ccc2c(C)c(CCN3C(=O)NC4(CCN(c5ncnc6[nH]cnc56)C4)C3=O)c(=O)oc2c1 (stereo not drawn) [Compound 197, 3-(2-(7-(diethylamino)-4-methyl-2-oxo-2H-chromen-3-yl)ethyl)-7-(9H-purin-6-yl)-1,3,7-triazaspiro[4.4]nonane-2,4-dione] | C (C ≥ 0.6) |
| CCN(CC)c1ccc2c(C)c(CCOC(=O)NCc3cccc(-c4ccccn4)c3)c(=O)oc2c1 [Compound 154, 2-(7-(diethylamino)-4-methyl-2-oxo-2H-chromen-3-yl)ethyl (3-(pyridin-2-yl)benzyl)carbamate] | C (C ≥ 0.6) |
| CCN(CC)c1ccc2c(C)c(CCN3CC4(CCN(c5ncccn5)CC4)NC3=O)c(=O)oc2c1 [Compound 221, 3-(2-(7-(diethylamino)-4-methyl-2-oxo-2H-chromen-3-yl)ethyl)-8-(pyrimidin-2-yl)-1,3,8-triazaspiro[4.5]decan-2-one] | C (C ≥ 0.6) |
| Cc1cc(=O)oc2cc(N(CC3CC3)CC3CC3)ccc12 [Compound 245, 7-(bis(cyclopropylmethyl)amino)-4-methyl-2H-chromen-2-one] | A (A < 0.3)) |
| CCN(CC)c1ccc2c(C)c(CCOC(=O)NCc3cc(F)cc(C(N)=O)c3)c(=O)oc2c1 [Compound 145, 2-(7-(diethylamino)-4-methyl-2-oxo-2H-chromen-3-yl)ethyl (3-carbamoyl-5-fluorobenzyl)carbamate] | C (C ≥ 0.6) |
| CCC(C)Oc1ccc2c(C)cc(=O)oc2c1 (stereo not drawn) [Compound 32, 7-(sec-butoxy)-4-methyl-2H-chromen-2-one] | A (A < 0.3)) |
| CCN(CC)c1ccc2c(C)c(CCOC(=O)NCc3cccc(CCC(=O)OC)c3)c(=O)oc2c1 [Compound 310, Methyl 3-(3-((((2-(7-(diethylamino)-4-methyl-2-oxo-2H-chromen-3-yl)ethoxy)carbonyl)amino)methyl)phenyl)propanoate] | A (A < 0.3)) |
| CCN(CC)c1ccc2c(C)c(CCN3C(=O)NC4(CCN(C(=O)c5ncc[nH]5)C4)C3=O)c(=O)oc2c1 (stereo not drawn) [Compound 181, 3-(2-(7-(diethylamino)-4-methyl-2-oxo-2H-chromen-3-yl)ethyl)-7-(1H-imidazole-2-carbonyl)-1,3,7-triazaspiro[4.4]nonane-2,4-dione] | C (C ≥ 0.6) |
| CCN(CC)c1ccc2c(CCCOC(=O)NCc3ccncc3)cc(=O)oc2c1 [Compound 301, 3-(7-(diethylamino)-2-oxo-2H-chromen-4-yl)propyl (pyridin-4-ylmethyl)carbamate] | A (A < 0.3)) |
| CCN(CC)c1ccc2c(C)c(CCNC(=O)NCc3cccc(C(N)=O)c3)c(=O)oc2c1 [Compound 298, 3-((3-(2-(7-(diethylamino)-4-methyl-2-oxo-2H-chromen-3-yl)ethyl)ureido)methyl)benzamide] | B (3 ≤ B < 0.6) |
| CCN(CC)c1ccc2c(C)c(CCN3C(=O)NC4(CCN(c5ncc(C(F)(F)F)cn5)CC4)C3=O)c(=O)oc2c1 [Compound 186, 3-(2-(7-(diethylamino)-4-methyl-2-oxo-2H-chromen-3-yl)ethyl)-8-(5-(trifluoromethyl)pyrimidin-2-yl)-1,3,8-triazaspiro[4.5]decane-2,4-dione] | A (A < 0.3)) |
| O=C(CN1C(=O)CNC1=O)Nc1ccc(C(F)(F)F)cc1 [Compound 151, 2-(2,5-dioxoimidazolidin-1-yl)-N-(4-(trifluoromethyl)phenyl)acetamide] | A (A < 0.3)) |
| CCN(CC)c1ccc2c(C)c(CCNC(=O)NCc3ccc(=O)[nH]c3)c(=O)oc2c1 [Compound 286, 1-(2-(7-(diethylamino)-4-methyl-2-oxo-2H-chromen-3-yl)ethyl)-3-((6-oxo-1,6-dihydropyridin-3-yl)methyl)urea] | A (A < 0.3)) |
| CCN(CC)c1ccc2c(C)c(CCOC(=O)N3CCC(CO)C3)c(=O)oc2c1 (stereo not drawn) [Compound 106, 2-(7-(diethylamino)-4-methyl-2-oxo-2H-chromen-3-yl)ethyl 3-(hydroxymethyl)pyrrolidine-1-carboxylate] | A (A < 0.3)) |
